This note sets out measurements from ChEMBL document CHEMBL1134667, “Physicochemical determinants of passive membrane permeability: role of solute hydrogen-bonding potential and volume” (J Med Chem, 2001).

Data set [1] is described as follows: Apical to basolateral effective permeability. The following applies: not told.
Data set [2] is described as follows: Partition coefficient (logP) (heptane). The following applies: heptane/water.
A short description of data set [3]: Basolateral to apical effective permeability. The following applies: not told.
The nature of data set [4]: Partition coefficient (logP). The following applies: octanol/water.
The nature of data set [5]: Partition coefficient (logP) (heptane/glycol). The following applies: heptane/ethylene glycol.

For the molecule `CC(=O)NCC(=O)NCCc1ccccc1`, the Papp A→B in data set [1] is 21.9 ×10⁻⁶ cm/s. Also, the logP in data set [2] is -3.73; in data set [4], 0.48; in data set [5], -5. Moreover, in data set [3], the Papp B→A turned out to be 20.6 ×10⁻⁶ cm/s.

For `CC(=O)N[C@H](CC1CCCCC1)C(=O)NCCc1ccccc1`, the Papp A→B in data set [1] worked out at 58.3 ×10⁻⁶ cm/s. Besides, the logP is -0.9 in data set [2], 3.13 in data set [4] and -3.41 in data set [5]. For the same molecule, the Papp B→A in data set [3] was 58.4 ×10⁻⁶ cm/s.

On to `CC(=O)N[C@@H](C(=O)NCCc1ccccc1)C(C)C`, for which the figures for the logP in data set [2], in data set [4] and in data set [5] were -2.64, 1.59 and -3.77, respectively.

Regarding `CNC(=O)[C@@H](Cc1ccccc1)NC(=O)[C@H](NC(C)=O)C(C)C`, the Papp A→B in data set [1] came to 0.91 ×10⁻⁶ cm/s. Further, the logP in data set [2] is -5.33; in data set [4], 0.66; in data set [5] it was -5.79. Further, in data set [3], the Papp B→A worked out at 1.84 ×10⁻⁶ cm/s.

As for `CC(=O)N[C@H](Cc1ccccc1)C(=O)NCCc1ccccc1`, the logP in data set [2] was -2; in data set [4], 2.32; in data set [5], -3.7.
